Calls of active or inactive are those of the source. No cut-off for these calls is given here.
How the values were obtained:
[1] = target: Nuclear factor NF-kappa-B complex (Homo sapiens) (UniProt Q00653+P19838+Q04206); assay: Inhibition of nuclear factor-kappa-B in IL-1beta-induced normal human articular chondrocytes at 10 uM after 120 hrs by Western blotting method
[2] = target: Stromelysin-1 (Homo sapiens, UniProt P08254); assay: Inhibition of MMP3 catalytic domain (unknown origin) assessed as reduction in hydrolysis of Mca-Pro-Leu-Gly-Leu-Dpa-Ala-Arg-NH2 substrate measured for 3 mins after substrate addition by fluorescence assay
Chain of Stromelysin-1 (P08254 whole entry, the tested form may be a part): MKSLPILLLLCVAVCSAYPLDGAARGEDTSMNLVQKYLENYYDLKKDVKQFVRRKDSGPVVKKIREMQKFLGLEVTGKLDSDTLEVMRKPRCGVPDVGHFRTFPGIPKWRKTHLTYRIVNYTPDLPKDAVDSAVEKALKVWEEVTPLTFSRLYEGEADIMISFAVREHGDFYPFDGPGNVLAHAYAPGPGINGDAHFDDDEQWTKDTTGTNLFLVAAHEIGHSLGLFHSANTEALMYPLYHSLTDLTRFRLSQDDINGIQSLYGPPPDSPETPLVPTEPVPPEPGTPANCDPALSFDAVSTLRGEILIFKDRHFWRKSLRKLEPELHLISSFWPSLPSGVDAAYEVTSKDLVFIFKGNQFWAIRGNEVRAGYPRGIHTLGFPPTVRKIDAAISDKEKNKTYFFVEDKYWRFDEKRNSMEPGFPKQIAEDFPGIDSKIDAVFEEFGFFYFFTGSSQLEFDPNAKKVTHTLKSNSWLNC

[3] = target: Collagenase 3 (Homo sapiens, UniProt P45452); assay: Inhibition of MMP13 catalytic domain (unknown origin) assessed as reduction in hydrolysis of Mca-Pro-Leu-Gly-Leu-Dpa-Ala-Arg-NH2 substrate measured for 3 mins after substrate addition by fluorescence assay
[4] = Chondroprotective activity in IL-1beta-induced normal human articular chondrocytes assessed as reduction in nitric oxide level at 10 uM after 120 hrs by Griess reagent based method; assay type: functional
[5] = Chondroprotective activity in IL-1beta-induced normal human articular chondrocytes assessed as increase in glycosaminoglycans level at 10 uM by 1,9-dimethylmethylene blue staining based spectrophotometry relative to IL-1beta; assay type: functional
[6] = Toxicity against normal human articular chondrocytes assessed as reduction in cell viability by MTT assay
[7] = Chondroprotective activity in IL-1beta-induced normal human articular chondrocytes assessed as MMP13 protein release at 10 uM after 120 hrs by ELISA method (reference value: 112 ng/ml); assay type: functional
[8] = Antioxidant activity assessed as AAPH radical scavenging activity assessed as Trolox equivalents by ORAC assay; assay type: physicochemical

Chain of Nuclear factor NF-kappa-B complex (Homo sapiens) (P19838 whole entry, looked up, the tested form may be a part): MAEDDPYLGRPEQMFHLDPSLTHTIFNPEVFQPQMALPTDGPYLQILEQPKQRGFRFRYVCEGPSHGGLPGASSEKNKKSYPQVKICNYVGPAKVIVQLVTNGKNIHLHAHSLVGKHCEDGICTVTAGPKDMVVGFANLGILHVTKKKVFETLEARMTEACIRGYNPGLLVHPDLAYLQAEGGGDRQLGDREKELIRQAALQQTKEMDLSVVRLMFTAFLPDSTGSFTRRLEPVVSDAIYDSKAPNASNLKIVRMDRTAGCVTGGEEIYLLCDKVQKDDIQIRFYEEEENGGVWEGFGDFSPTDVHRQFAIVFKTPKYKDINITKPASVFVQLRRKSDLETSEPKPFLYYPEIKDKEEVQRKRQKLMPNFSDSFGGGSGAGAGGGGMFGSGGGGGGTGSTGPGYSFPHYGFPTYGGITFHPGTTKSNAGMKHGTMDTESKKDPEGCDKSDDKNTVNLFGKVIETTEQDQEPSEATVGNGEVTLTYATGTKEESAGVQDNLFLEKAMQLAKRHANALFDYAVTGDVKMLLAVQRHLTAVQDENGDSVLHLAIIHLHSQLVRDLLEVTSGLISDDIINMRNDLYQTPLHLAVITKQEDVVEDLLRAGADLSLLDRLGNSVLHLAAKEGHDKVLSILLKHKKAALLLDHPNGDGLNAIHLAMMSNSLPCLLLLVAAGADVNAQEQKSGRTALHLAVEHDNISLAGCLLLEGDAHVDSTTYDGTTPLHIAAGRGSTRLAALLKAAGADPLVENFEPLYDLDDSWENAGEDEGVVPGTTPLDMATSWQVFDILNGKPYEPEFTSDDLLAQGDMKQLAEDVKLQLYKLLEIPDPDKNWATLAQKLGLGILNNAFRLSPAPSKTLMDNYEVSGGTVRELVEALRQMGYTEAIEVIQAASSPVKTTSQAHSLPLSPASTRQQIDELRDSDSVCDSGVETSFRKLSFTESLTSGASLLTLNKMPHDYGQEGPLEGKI
Chain of Nuclear factor NF-kappa-B complex (Homo sapiens) (Q00653 whole entry, looked up, the tested form may be a part): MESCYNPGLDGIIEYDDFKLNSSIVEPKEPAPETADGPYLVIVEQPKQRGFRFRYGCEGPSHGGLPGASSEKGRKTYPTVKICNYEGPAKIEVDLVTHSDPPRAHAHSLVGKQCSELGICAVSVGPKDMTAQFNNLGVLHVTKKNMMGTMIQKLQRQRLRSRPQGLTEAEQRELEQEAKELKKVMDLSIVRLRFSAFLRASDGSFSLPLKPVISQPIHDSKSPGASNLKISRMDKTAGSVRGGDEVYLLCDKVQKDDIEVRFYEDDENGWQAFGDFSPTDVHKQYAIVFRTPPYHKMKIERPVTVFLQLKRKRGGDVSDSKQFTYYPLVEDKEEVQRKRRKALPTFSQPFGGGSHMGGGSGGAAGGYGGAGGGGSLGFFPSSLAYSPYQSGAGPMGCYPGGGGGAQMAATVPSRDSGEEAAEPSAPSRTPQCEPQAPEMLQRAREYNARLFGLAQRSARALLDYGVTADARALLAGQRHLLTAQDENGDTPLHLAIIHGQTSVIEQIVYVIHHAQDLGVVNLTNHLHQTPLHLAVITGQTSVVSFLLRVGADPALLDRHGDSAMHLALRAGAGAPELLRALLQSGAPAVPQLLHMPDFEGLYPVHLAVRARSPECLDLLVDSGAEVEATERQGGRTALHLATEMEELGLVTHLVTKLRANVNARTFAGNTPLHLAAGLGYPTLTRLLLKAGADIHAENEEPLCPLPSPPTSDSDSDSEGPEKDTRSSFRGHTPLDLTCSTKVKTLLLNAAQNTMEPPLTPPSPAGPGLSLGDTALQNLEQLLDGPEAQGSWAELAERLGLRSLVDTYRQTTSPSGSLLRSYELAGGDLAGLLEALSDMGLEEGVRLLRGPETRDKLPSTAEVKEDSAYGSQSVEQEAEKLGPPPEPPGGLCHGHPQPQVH
Chain of Nuclear factor NF-kappa-B complex (Homo sapiens) (Q04206 whole entry, looked up, the tested form may be a part): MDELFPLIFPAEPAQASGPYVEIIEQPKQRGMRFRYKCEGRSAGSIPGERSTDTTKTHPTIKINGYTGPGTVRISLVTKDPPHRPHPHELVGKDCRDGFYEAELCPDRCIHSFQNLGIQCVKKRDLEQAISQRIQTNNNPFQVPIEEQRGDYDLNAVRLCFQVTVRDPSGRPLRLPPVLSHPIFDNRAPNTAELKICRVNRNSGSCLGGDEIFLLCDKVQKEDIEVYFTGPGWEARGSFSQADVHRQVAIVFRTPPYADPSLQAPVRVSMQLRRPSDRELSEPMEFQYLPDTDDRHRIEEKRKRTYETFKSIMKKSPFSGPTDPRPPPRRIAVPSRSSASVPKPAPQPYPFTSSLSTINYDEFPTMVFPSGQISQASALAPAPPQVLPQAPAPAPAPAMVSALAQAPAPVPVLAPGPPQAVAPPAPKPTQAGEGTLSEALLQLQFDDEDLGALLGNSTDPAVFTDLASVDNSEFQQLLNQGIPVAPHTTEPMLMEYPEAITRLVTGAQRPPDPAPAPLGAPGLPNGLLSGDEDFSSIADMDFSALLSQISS

Structure (SMILES)	inhibition [1]	IC50 [2]	IC50 [3]	Activity [8]	inhibition at 10 µM [4]	Activity [5]	Activity [6]	Activity [7]
O=C1N/C(=N/c2nsc3ccccc23)S/C1=C\c1cccc([N+](=O)[O-])c1	–	≥ 100 µM	55.9 µM	>= 100	46%	37%	Non-toxic	–
O=C1N/C(=N/c2nsc3ccccc23)S/C1=C/c1ccccc1O	–	97.4 µM	≥ 100 µM	0.8	29%	40%	Non-toxic	–
O=C1N/C(=N/c2nsc3ccccc23)S/C1=C\c1ccccc1	–	≥ 100 µM	32 µM	–	42%	28%	Non-toxic	–
O=C1N/C(=N/c2nsc3ccccc23)S/C1=C/c1cccc(O)c1	–	≥ 100 µM	26.9 µM	1.2	9%	32%	Non-toxic	–
O=C1N/C(=N/c2nsc3ccccc23)S/C1=C\c1ccc(Cl)cc1	–	65 µM	25 µM	1.64	46%	30%	Non-toxic	–

These reach a lower IC50 [2]. Values come first.

inhibition [1]	IC50 [2]	IC50 [3]	Activity [8]	Structure (SMILES)	inhibition at 10 µM [4]	Activity [5]	Activity [6]	Activity [7]
Active	3.15 µM	≥ 100 µM	1.35	COc1cc(/C=C2\S/C(=N\c3nsc4ccccc34)NC2=O)ccc1O	66%	40%	Non-toxic	4.3 ng/mL
–	43 µM	64 µM	>= 100	O=C1N/C(=N/c2nsc3ccccc23)S/C1=C\c1ccccc1[N+](=O)[O-]	48%	31%	Non-toxic	–
–	6.19 µM	89.4 µM	0.45	O=C1N/C(=N/c2nsc3ccccc23)S/C1=C\c1ccccc1Cl	13%	34%	Non-toxic	–
